Measured values from patent publication US20060100287A1, “Insulin-like growth factor-1 secretagogue” (priority 2004, published 2006).

Test system: IGF-1
Test: Test Example 3: action of various capsaicinoids on mouse IGF-1 (test solutions on back skin)
Type: in vivo
[1] = test solution containing 0.01% by mass in ethanol/physiological saline, 0.2 mL/cm^2 on back skin, 30 minutes after application, p<0.01 (FIG. 3, FIG. 4)

SMILES: COc1cc(CNC(=O)CCCC/C=C/C(C)C)ccc1O [capsaicin, (6E)-N-[(4-hydroxy-3-methoxyphenyl)methyl]-8-methyl-6-nonenamide, reference compound]
- amount of IGF-1 in the mouse back skin compared to the base preparation [1]: significantly elevated

SMILES: COc1cc(COC(=O)CCCC/C=C/C(C)C)ccc1O [capsiate]
- amount of IGF-1 in the mouse back skin compared to the base preparation [1]: significantly elevated

SMILES: COc1cc(CNC(=O)CCCCCCC(C)C)ccc1O [dihydrocapsaicin]
- amount of IGF-1 in the mouse back skin compared to the base preparation [1]: significantly elevated

SMILES: COc1cc(COC(=O)CCCCCCC(C)C)ccc1O [dihydrocapsiate]
- amount of IGF-1 in the mouse back skin compared to the base preparation [1]: significantly elevated

SMILES: CCCCCCCCC(=O)NCc1ccc(O)c(OC)c1 [nonylic vanillylamide]
- amount of IGF-1 in the mouse back skin compared to the base preparation (mouse, in vivo): significantly elevated

SMILES: COc1cc(CNC(=O)CCCCCC(C)C)ccc1O [nordihydrocapsaicin]
- amount of IGF-1 in the mouse back skin compared to the base preparation (mouse, in vivo): significantly elevated

SMILES: COc1cc(COC(=O)CCCCCC(C)C)ccc1O [nordihydrocapsiate]
- amount of IGF-1 in the mouse back skin compared to the base preparation [1]: significantly elevated
